Reference: article PMC6931042 (Bioorganic chemistry, 2018)
Read-outs that look alike come from different tables or passages of the source.

How the values were obtained:
[1] = tested on: human lung adenocarcinoma A549; assay: Trypan blue exclusion cytotoxicity assay
[2] = tested on: chronic myeloid leukemia K-562; assay: Trypan blue exclusion cytotoxicity assay
[3] = read-out: A549 (IC50 μM), trypan blue exclusion, 24 h, mean ± SD
[4] = read-out: K-562 (IC50 μM), trypan blue exclusion, 24 h, mean ± SD
[5] = Homo sapiens, A549, 24 h, read-out: A549 (IC50 μM), trypan blue exclusion, mean ± SD
[6] = Homo sapiens, K562, 24 h, read-out: K-562 (IC50 μM), trypan blue exclusion, mean ± SD

## N.N.[Cl][Pt][Cl] [Cisplatin, reference compound]
[1]; [3]
  IC50: 15.3 ± 1.87 µM
[2]; [4]
  IC50: 2.71 ± 0.34 µM

## Nc1ccc(C(/C=C\c2ccccc2)=NNC(=O)c2cc(-c3ccccc3)nc3ccccc23)cc1 [Compound 9a, N’-((Z)-1-(4-Aminophenyl)-3-phenylallylidene)-2-phenylquinoline-4-carbohydrazide]
[1]; [5]
  IC50: > 100 µM
[2]; [6]
  IC50: 83 µM
[2]; [4]
  IC50: 82.8 ± 3.24 µM

## Nc1ccc(C(/C=C\c2ccccc2)=NNC(=O)c2cc(-c3ccc(Cl)cc3)nc3ccccc23)cc1 [Compound 9b, N’-((Z)-1-(4-Aminophenyl)-3-phenylallylidene)-2-(4-chlorophenyl)quinoline-4-carbohydrazide]
[1]; [5]
  IC50: 17.6 ± 2.5 µM
[2]; [6]
  IC50: 8.96 ± 1.06 µM

## COc1ccc(-c2cc(C(=O)NN=C(/C=C\c3ccccc3)c3ccc(N)cc3)c3ccccc3n2)cc1 [Compound 9c, N’-((Z)-1-(4-Aminophenyl)-3-phenylallylidene)-2-(4-methoxyphenyl)quinoline-4-carbohydrazide]
[1]; [5]
  IC50: 16.4 ± 1.3 µM
[2]; [6]
  IC50: 5.37 ± 0.31 µM

## Cc1ccc(-c2cc(C(=O)NN=C(/C=C\c3ccccc3)c3ccc(N)cc3)c3ccccc3n2)cc1 [Compound 9d, N’-((Z)-1-(4-Aminophenyl)-3-phenylallylidene)-2-(4-methylphenyl)quinoline-4-carbohydrazide]
[1]; [5]
  IC50: 11 µM
[1]; [3]
  IC50: 11.2 ± 0.52 µM
[2]; [6]
  IC50: 6.98 ± 0.92 µM

## COc1ccc2nc(-c3ccc(Cl)cc3)cc(C(=O)NN=C(/C=C\c3ccccc3)c3ccc(N)cc3)c2c1 [Compound 9e, N’-((Z)-1-(4-Aminophenyl)-3-phenylallylidene)-2-(4-chlorophenyl)-6-methoxyquinoline-4-carbohydrazide]
[1]; [5]
  IC50: 19.2 ± 1.85 µM
[2]; [6]
  IC50: 5.09 ± 0.19 µM

## COc1ccc(-c2cc(C(=O)NN=C(/C=C\c3ccccc3)c3ccc(N)cc3)c3cc(OC)ccc3n2)cc1 [Compound 9f, N’-((Z)-1-(4-Aminophenyl)-3-phenylallylidene)-2-(4-methoxyphenyl)-6-methoxyquinoline-4-carbohydrazide]
[1]; [5]
  IC50: 91 µM
[1]; [3]
  IC50: 91.4 ± 4.54 µM
[2]; [6]
  IC50: 81 µM
[2]; [4]
  IC50: 81.2 ± 3.14 µM

## Nc1ccc(C(/C=C\c2ccc(Cl)cc2)=NNC(=O)c2cc(-c3ccccc3)nc3ccccc23)cc1 [Compound 9g, N’-((Z)-1-(4-Aminophenyl)-3-(4-chlorophenyl)allylidene)-2-phenylquinoline-4-carbohydrazide]
[1]; [5]
  IC50: 18.5 µM
[1]; [3]
  IC50: 18.5 ± 0.52 µM
[2]; [6]
  IC50: 15.2 µM
[2]; [4]
  IC50: 15.2 ± 2.15 µM

## Nc1ccc(C(/C=C\c2ccc(Cl)cc2)=NNC(=O)c2cc(-c3ccc(Cl)cc3)nc3ccccc23)cc1 [Compound 9h, N’-((Z)-1-(4-Aminophenyl)-3-(4-chlorophenyl)allylidene)-2-(4-chlorophenyl)quinoline-4-carbohydrazide]
[1]; [5]
  IC50: 9 µM
[1]; [3]
  IC50: 9.46 ± 0.63 µM
[2]; [6]
  IC50: 4.28 ± 0.34 µM

## COc1ccc2nc(-c3ccc(Cl)cc3)cc(C(=O)NN=C(/C=C\c3ccc(Cl)cc3)c3ccc(N)cc3)c2c1 [Compound 9k, N’-((Z)-1-(4-Aminophenyl)-3-(4-chlorophenyl)allylidene)-2-(4-chlorophenyl)-6-methoxyquinoline-4-carbohydrazide]
[1]; [5]
  IC50: > 100 µM
[2]; [6]
  IC50: 15.2 ± 1.49 µM

## COc1ccc(-c2cc(C(=O)NN=C(/C=C\c3ccc(Cl)cc3)c3ccc(N)cc3)c3cc(OC)ccc3n2)cc1 [Compound 9l, N’-((Z)-1-(4-Aminophenyl)-3-(4-chlorophenyl)allylidene)-2-(4-methoxyphenyl)-6-methoxyquinoline-4-carbohydrazide]
[1]; [5]
  IC50: > 100 µM
[2]; [6]
  IC50: 5.17 ± 0.18 µM

## COc1ccc(/C=C\C(=NNC(=O)c2cc(-c3ccccc3)nc3ccccc23)c2ccc(N)cc2)cc1 [Compound 9m, N’-((Z)-1-(4-Aminophenyl)-3-(4-methoxyphenyl)allylidene)-2-phenylquinoline-4-carbohydrazide]
[1]; [5]
  IC50: > 100 µM
[2]; [6]
  IC50: 60.7 ± 2.67 µM

## COc1ccc(/C=C\C(=NNC(=O)c2cc(-c3ccc(Cl)cc3)nc3ccccc23)c2ccc(N)cc2)cc1 [Compound 9n, N’-((Z)-1-(4-Aminophenyl)-3-(4-methoxyphenyl)allylidene)-2-(4-chlorophenyl)quinoline-4-carbohydrazide]
[1]; [5]
  IC50: 48.3 ± 1.69 µM
[2]; [6]
  IC50: 14.4 ± 0.94 µM

## COc1ccc(/C=C\C(=NNC(=O)c2cc(-c3ccc(OC)cc3)nc3ccccc23)c2ccc(N)cc2)cc1 [Compound 9o, N’-((Z)-1-(4-Aminophenyl)-3-(4-methoxyphenyl)allylidene)-2-(4-methoxyphenyl)quinoline-4-carbohydrazide]
[1]; [5]
  IC50: 46.5 ± 2.21 µM
[2]; [6]
  IC50: 10.9 ± 0.74 µM

## COc1ccc(/C=C\C(=NNC(=O)c2cc(-c3ccc(C)cc3)nc3ccccc23)c2ccc(N)cc2)cc1 [Compound 9p, N’-((Z)-1-(4-Aminophenyl)-3-(4-methoxyphenyl)allylidene)-2-(4-methylphenyl)quinoline-4-carbohydrazide]
[1]; [5]
  IC50: 33.9 ± 2.15 µM
[2]; [6]
  IC50: 18 ± 0.97 µM

## COc1ccc(/C=C\C(=NNC(=O)c2cc(-c3ccc(Cl)cc3)nc3ccc(OC)cc23)c2ccc(N)cc2)cc1 [Compound 9q, N’-((Z)-1-(4-Aminophenyl)-3-(4-methoxyphenyl)allylidene)-2-(4-chlorophenyl)-6-methoxyquinoline-4-carbohydrazide]
[1]; [5]
  IC50: 97.2 ± 2.36 µM
[2]; [6]
  IC50: 68.1 ± 2.87 µM

## COc1ccc(/C=C\C(=NNC(=O)c2cc(-c3ccc(OC)cc3)nc3ccc(OC)cc23)c2ccc(N)cc2)cc1 [Compound 9r, N’-((Z)-1-(4-Aminophenyl)-3-(4-methoxyphenyl)allylidene)-2-(4-methoxyphenyl)-6-methoxyquinoline-4-carbohydrazide]
[1]; [5]
  IC50: 67.4 ± 2.29 µM
[2]; [6]
  IC50: 4.45 ± 0.64 µM

## COc1ccc2nc(-c3ccc(Cl)cc3)cc(C(=O)NN=C(/C=C\c3ccc(OC)c(OC)c3)c3ccc(N)cc3)c2c1 [Compound 9s, N’-((Z)-1-(4-Aminophenyl)-3-(3,4-dimethoxyphenyl)allylidene)-2-(4-chlorophenyl)-6-methoxyquinoline-4-carbohydrazide]
[1]; [5]
  IC50: > 100 µM
[2]; [6]
  IC50: > 100 µM

## COc1ccc(-c2cc(C(=O)NN=C(/C=C\c3ccc(OC)c(OC)c3)c3ccc(N)cc3)c3cc(OC)ccc3n2)cc1 [Compound 9t, N’-((Z)-1-(4-Aminophenyl)-3-(3,4-dimethoxyphenyl)allylidene)-2-(4-methoxyphenyl)-6-methoxyquinoline-4-carbohydrazide]
[1]; [5]
  IC50: 31.6 ± 2.02 µM
[2]; [6]
  IC50: 23.1 ± 2.15 µM

## O=c1cc(N2CCOCC2)oc2c(-c3ccccc3)cccc12 [LY294002, reference compound]
[1]; [5]
  IC50: 3.52 µM
[2]; [6]
  IC50: 2.68 µM
